Patent publication US6620849B2, “Potassium channel inhibitors” (ICAFEN, Inc., priority 2000, dated 2003)
Where two headings read alike, the source gives them in different places.

Molecular target: T1, Kv1.5 potassium channel (Homo sapiens, UniProt P22460)
T1 construct: expressed in transfected cells
Assay: Whole-cell patch clamp electrophysiological recording of Kv1.5 currents in CHO cells
Format: cell-based
Settings: CHO cells stably expressing Kv1.5, whole-cell voltage clamp, holding potential −80 mV, one depolarization every 10 seconds
Description: Electrophysiological recordings of potassium currents in Chinese hamster ovary cells stably expressing the gene construct for the Kv1.5 potassium channel subunit were performed using the whole cell configuration of the patch clamp technique (Hamill et al., Pflugers Archiv 391:85, 1981). Cell lines expressing Kv1.5 were prepared using standard techniques known to those skilled in the art. Cells were plated on glass coverslips at a density of 2×10^4 cells/coverslip and used within 24-48 hours. Solutions used for electrophysiological recordings were as follows. Extracellular bathing solutions typically contain (in mM) 132 NaCl, 5.4 KCl, 1.8 CaCl2, 0.8 MgCl2, 10 HEPES, 5 glucose at pH 7.3. Electrode pipette solutions (intracellular solution) for measuring Kv1.5 typically contain (in mM) 100 KF, 40 KCl, 5 NaCl, 2 MgCl2, 5 EGTA, 10 HEPES and 5 glucose at pH 7.4, 295 mOsm and has a resistance of about 1-2 MΩ. The coverslips were placed in a small chamber (volume ˜200 μl) on the mechanical stage of an inverted microscope and perfused (approximately 2 ml/min) with extracellular recording solution. Drug was applied using a series of narrow-bore glass capillary tubes (inner diameter ˜100 μm) positioned approximately 200 μm from the cell.
As soon as the current recording was stable, a compound representative of the present invention was superfused over the cell until steady-state block was observed. Using this technique, the effects of the compound on peak and steady-state current were determined at progressively increasing compound concentrations.
The testing results of selected compounds from Table 2 using this assay and the techniques described above are reported in Table 3 as the percent inhibition of Kv1.5 potassium channel currents at a single concentration of 0.1 μM.

[1] = read-out: Peak Current Inhibition at 0.1 μM (%)
[2] = read-out: Steady-state Current Inhibition at 0.1 μM (%)

T1 sequence (P22460 whole entry): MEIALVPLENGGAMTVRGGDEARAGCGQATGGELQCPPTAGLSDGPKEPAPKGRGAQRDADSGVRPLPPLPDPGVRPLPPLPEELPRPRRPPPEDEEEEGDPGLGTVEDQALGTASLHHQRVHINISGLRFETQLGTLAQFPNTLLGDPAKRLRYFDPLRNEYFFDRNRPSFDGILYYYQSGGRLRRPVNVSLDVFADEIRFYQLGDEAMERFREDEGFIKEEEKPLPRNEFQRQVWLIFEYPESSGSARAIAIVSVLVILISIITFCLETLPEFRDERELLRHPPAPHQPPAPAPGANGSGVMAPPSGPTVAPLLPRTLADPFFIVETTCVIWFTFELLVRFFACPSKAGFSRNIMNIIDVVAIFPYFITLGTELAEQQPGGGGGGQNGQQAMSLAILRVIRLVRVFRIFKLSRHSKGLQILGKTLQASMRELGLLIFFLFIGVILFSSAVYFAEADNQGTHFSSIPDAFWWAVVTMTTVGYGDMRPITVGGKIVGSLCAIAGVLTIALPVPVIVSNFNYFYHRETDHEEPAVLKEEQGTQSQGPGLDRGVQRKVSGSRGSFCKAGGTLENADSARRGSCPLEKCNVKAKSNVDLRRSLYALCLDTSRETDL

inhibition at 0.1 µM [1] [%]	inhibition at 0.1 µM [2] [%]	SMILES
39	50	Cc1ncc(CN(C(=O)C2CC2c2ccccc2)c2ccc3c(c2)C(NS(=O)(=O)c2ccc(F)cc2)CCC3)n1CC(C)C (stereo not shown) [Example 5]
50	69	Cc1cccc(CN(C(=O)[C@@H]2C[C@H]2c2ccc(C(F)(F)F)cc2)c2ccc3c(c2)[C@@H](NS(=O)(=O)c2ccccc2F)CCC3)n1 [Example 39]
43	68	Cc1cccc(CN(C(=O)C2CC2c2ccccc2)c2ccc3c(c2)C(NS(=O)(=O)c2ccccc2)CCC3)n1 (stereo not shown) [Example 7]
42	81	Cc1cccc(CN(C(=O)[C@@H]2C[C@H]2c2ccccc2)c2ccc3c(c2)[C@@H](NS(=O)(=O)c2cccc(Cl)c2)CCC3)n1 [Example 14]
60	82	Cc1cccc(CN(C(=O)C2CC2c2ccccc2)c2ccc3c(c2)C(NS(=O)(=O)c2ccccc2Cl)CCC3)n1 (stereo not shown) [Example 9]
24	53	Cc1cccc(CN(C(=O)C2CC2c2ccccc2)c2ccc3c(c2)C(NS(=O)(=O)c2ccc(F)cc2)CCC3)n1 (stereo not shown) [Example 10]
70	95	CCc1ccc(S(=O)(=O)N[C@H]2CCCc3ccc(N(Cc4nccn4C)C(=O)[C@@H]4C[C@H]4c4ccc(Cl)cc4)cc32)cc1 [Example 48]
80	93	Cn1ccnc1CN(C(=O)[C@@H]1C[C@H]1c1ccc(F)cc1)c1ccc2c(c1)[C@@H](NS(=O)(=O)c1cccc(F)c1)CCC2 [Example 30]
70	84	Cn1ccnc1CN(C(=O)[C@@H]1C[C@H]1c1ccc(F)cc1)c1ccc2c(c1)[C@@H](NS(=O)(=O)c1ccc(F)cc1)CCC2 [Example 31]
71	92	Cn1ccnc1CN(C(=O)[C@@H]1C[C@H]1c1ccc(Cl)cc1)c1ccc2c(c1)[C@@H](NS(=O)(=O)c1ccccc1)CCC2 [Example 44]
42	80	Cc1cccc(CN(C(=O)[C@@H]2C[C@H]2c2ccccc2)c2ccc3c(c2)[C@@H](NS(=O)(=O)c2ccc(Cl)cc2)CCC3)n1 [Example 16]
70	91	Cn1ccnc1CN(C(=O)[C@@H]1C[C@H]1c1ccc(F)cc1)c1ccc2c(c1)[C@@H](NS(=O)(=O)c1ccc(F)c(Cl)c1)CCC2 [Example 32]
45	82	Cc1cccc(CN(C(=O)[C@@H]2C[C@H]2c2ccccc2)c2ccc3c(c2)[C@@H](NS(=O)(=O)c2ccc(F)cc2)CCC3)n1 [Example 13]
57	96	Cc1cccc(CN(C(=O)[C@@H]2C[C@H]2c2ccccc2)c2ccc3c(c2)[C@@H](NS(=O)(=O)c2ccccc2)CCC3)n1 [Example 12]
64	76	Cn1ccnc1CN(C(=O)[C@@H]1C[C@H]1c1ccccc1)c1ccc2c(c1)[C@@H](NS(=O)(=O)c1ccc(Cl)cc1)CCC2 [Example 4]
47	72	Cn1ccnc1CN(C(=O)[C@@H]1C[C@H]1c1ccc(C(F)(F)F)cc1)c1ccc2c(c1)[C@@H](NS(=O)(=O)c1ccccc1F)CCC2 [Example 43]
35	69	Cn1ccnc1CN(C(=O)[C@H]1C[C@@H]1c1ccc(Cl)cc1)c1ccc2c(c1)[C@@H](NS(=O)(=O)c1ccc(F)cc1)CCC2 [Example 25]
68	78	Cn1ccnc1CN(C(=O)[C@@H]1C[C@H]1c1ccc(F)cc1)c1ccc2c(c1)[C@@H](NS(=O)(=O)c1ccccc1F)CCC2 [Example 29]
72	78	Cn1ccnc1CN(C(=O)[C@@H]1C[C@H]1c1ccccc1)c1ccc2c(c1)[C@@H](NS(=O)(=O)c1ccccc1)CCC2 [Example 6]
57	82	Cn1ccnc1CN(C(=O)[C@H]1C[C@@H]1c1ccc(Cl)cc1)c1ccc2c(c1)[C@H](NS(=O)(=O)c1ccccc1)CCC2 [Example 54]
